Laboratory results taken from patent US7189383B2, “Radioactively labelled amino acid analogues, their preparation and use” (Mallinckrodt Inc., priority 2002, dated 2007).
Blank lines part the entries; values can stand above or below the compound they belong to.

Tests used:
[1] = tested on: RIM tumour (rhabdomyo-sarcoma); test: In vivo evaluation of SPECT tracers in RIM tumour (rhabdomyo-sarcoma)-bearing rats; set-up: species or system rat
Source text: In the research that led to the invention two new potential SPECT tracers, 2-^123I-tyrosine (2-^123I-Tyr) and 2-^123-I-phenylalanine, were developed.

[2] = tested on: R1M cells; test: Preliminary uptake experiments in R1M cells in vitro; assay type: cell-based; conditions: buffer simulating in vivo conditions
Source text: The inventors considered based on the results obtained with ^18F-FET and their own results with 2-^123I-Phe and 2-^123I-Tyr that the aromatic amino acid properties are conserved after substitution of an O-ethyl group and even in the presence of a voluminous iodine atom. This invention is thus based on the new approach to introduce an alkyl side chain on the phenyl ring to facilitate introduction of the radioactive atom. They thus provided an ^18F-alkyl-phenyl structure in phenylalanine and tyrosine, either ortho, meta or para. Examples are ^18F-CH[…] or ^18F-CH2-CH[…] and 2-^18F-CH[…] or 2-^18F-CH2-CH[…]. This reduces the labelling chemistry to direct conventional nucleophilic aliphatic substitution on the alkylphenylic side branch of the L-amino acid. In this approach cumbersome stereospecific synthesis is not required. The same strategy was followed for the radio-fluorination of the aliphatic amino acids leucine and isoleucine. […] Since aliphatic-substituted F hardly changes the pharmacology, it follows that these aliphatic amino acids are also suitable molecules for radio-fluorination.

[3] = target: T1, L-transport system 1 (LAT1) (Rattus norvegicus, UniProt Q63016); test: Inhibition of L-3H-phenylalanine uptake in rat rhabdomyo-sarcoma (R1M) cells in vitro; assay type: cell-based
T1 construct: endogenous in cells; host or cells: R1M rat rhabdomyosarcoma cells
T1 sequence (Q63016 whole entry): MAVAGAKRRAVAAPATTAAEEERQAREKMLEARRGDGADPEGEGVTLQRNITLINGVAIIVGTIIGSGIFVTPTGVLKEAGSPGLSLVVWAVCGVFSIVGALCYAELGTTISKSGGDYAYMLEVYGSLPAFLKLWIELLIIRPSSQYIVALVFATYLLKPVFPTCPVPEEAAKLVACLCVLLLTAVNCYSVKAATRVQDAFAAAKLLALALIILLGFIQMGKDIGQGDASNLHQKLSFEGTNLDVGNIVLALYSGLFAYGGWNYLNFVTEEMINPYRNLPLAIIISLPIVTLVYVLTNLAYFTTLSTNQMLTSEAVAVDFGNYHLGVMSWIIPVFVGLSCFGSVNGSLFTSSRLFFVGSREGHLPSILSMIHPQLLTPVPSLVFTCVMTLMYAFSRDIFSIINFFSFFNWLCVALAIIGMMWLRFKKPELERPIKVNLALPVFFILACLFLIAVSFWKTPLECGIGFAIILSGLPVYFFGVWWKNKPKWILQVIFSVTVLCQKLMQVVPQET
T1 sequence (Q794F9 whole entry partner): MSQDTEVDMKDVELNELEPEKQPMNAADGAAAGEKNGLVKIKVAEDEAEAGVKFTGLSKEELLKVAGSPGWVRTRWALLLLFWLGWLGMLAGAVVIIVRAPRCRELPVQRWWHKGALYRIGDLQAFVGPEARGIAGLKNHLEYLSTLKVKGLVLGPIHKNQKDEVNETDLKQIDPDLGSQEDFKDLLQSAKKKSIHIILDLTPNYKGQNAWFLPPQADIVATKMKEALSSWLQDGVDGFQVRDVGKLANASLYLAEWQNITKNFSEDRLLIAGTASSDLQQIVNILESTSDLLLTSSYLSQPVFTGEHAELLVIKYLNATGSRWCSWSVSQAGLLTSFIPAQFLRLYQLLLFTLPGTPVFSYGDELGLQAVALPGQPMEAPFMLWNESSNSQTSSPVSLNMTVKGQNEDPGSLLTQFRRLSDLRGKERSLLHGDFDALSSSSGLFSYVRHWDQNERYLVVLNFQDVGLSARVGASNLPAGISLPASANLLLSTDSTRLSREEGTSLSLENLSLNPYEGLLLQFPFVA
Protocol: FIG. 1: Inhibition of ^3H-Phe/Phe uptake in R1M cells in vitro by L-2-F-methyl-PHE. The common intercept proves that the inhibition is competitive and that L-2-F-methyl-Phe uses the same transport system as L-Phe.
The affinity of L-2-F-methyl-phenylalanine for uptake by the L-transport system 1 (LAT1) in cancer cells (rat rhabdomyo-sarcoma cells) was determined by measuring the inhibition of the uptake of L-^3H-phenylalanine after 15 minutes incubation in HEPES buffer of pH 7.4 containing appropriate amounts of L-phenylalanine and of L-2-F-methyl-phenylalanine. The uptake was saturable and followed the typical Michaelis-Menten relation allowing to draw Lineweaver-Burk (FIG. 1) plots.

[4] = tested on: R1M tumour; test: PET of R1M tumour bearing rat after intravenous injection; assay type: in vivo; conditions: 120 Mbq intravenously, FIG. 2
Source text: FIG. 2: PET of R1M tumour bearing rat. The tumour is visible at the upper right, the pancreas in the middle and the bladder under. 120 Mbq L-2-^18F-methyl-phenylalanine was intravenously injected.
In Vivo Rat Evaluation of L-2-18F-methyl-phenylalanine in a R1M Tumour Bearing Rat by Means of PET
The latter is typical for rodent.

activity in the kidneys relative to IMT ([1]; rat, in vivo): 10 times less
high brain uptake observed ([1]; rat, in vivo): no
renal accumulation ([1]; rat, in vivo): no renal accumulation
uptake in the tumours ([1]; rat, in vivo): high uptake
Compound: N[C@@H](Cc1ccccc1[123I])C(=O)O [2-^123-I-phenylalanine]

Compound: ^3H-isoleucine
uptake in R1M cells [2]: comparable with 3H-Tyr and ^3H-Phe

Km ([3]; same conditions: 15 minutes incubation, HEPES buffer pH 7.4, rat rhabdomyo-sarcoma cells): 65 µM
Compound: N[C@@H](Cc1ccccc1)C(=O)O [L-phenylalanine]

Compound: N[C@@H](Cc1ccc(O)cc1[123I])C(=O)O [2-^123I-tyrosine]
activity in the kidneys relative to IMT ([1]; RIM tumour-bearing rats): 10 times less
high brain uptake observed ([1]; RIM tumour-bearing rats): no
renal accumulation ([1]; RIM tumour-bearing rats): no renal accumulation
uptake in the tumours ([1]; RIM tumour-bearing rats, comparable with IMT): high uptake

accumulation in the kidneys or other organs (PET) [4]: No accumulation
uptake in the tumour and pancreas (PET) [4]: high uptake
Compound: N[C@@H](Cc1ccccc1C[18F])C(=O)O [L-2-18F-methyl-phenylalanine]
route of clearance (PET) [4]: cleared through the kidneys to the bladder

Ki ([3]; 15 minutes incubation, HEPES buffer pH 7.4, rat rhabdomyo-sarcoma cells): 76 µM
type of inhibition of 3H-Phe/Phe uptake (Lineweaver-Burk plots) ([3]; R1M cells in vitro, FIG. 1): competitive
Compound: N[C@@H](Cc1ccccc1CF)C(=O)O [L-2-F-methyl-phenylalanine]

Compound: CC(C)C[C@H](N)C(=O)O [^3H-leucine]
uptake in R1M cells [2]: comparable with 3H-Tyr and ^3H-Phe
